# Like-named read-outs stand apart in the source and are kept apart here.
# Legend:
# Assay type in all cases: cell-based, human
# [1] = test system: A2780 cells; test: In vitro cytotoxicity, MTS assay; details: after a 72 h incubation, read-out: Cisplatin IC50
# Description: (§1) ES-2, OVCAR-3, SKOV-3, A2780, and A2780/CDDP cells were seeded at 5000 cells per well in 96-well plates and further cultured for 24 h. The culture media were replaced by 100 μL of fresh culture media containing 10% FBS. Cisplatin solution, NCP-1, NCP-1/siRNA containing pooled siRNAs, NCP-1/siRNA containing single siRNA, and Zn control/siRNA containing pooled siRNAs were added to the cells at different cisplatin or siRNA dose. Following incubation for 24 h, the cell viability was determined by (3-(4,5-dimethylthiazol-2-yl)-5-(3-carboxymethoxyphenyl)-2-(4-sulfophenyl)-2H-tetrazolium) (MTS) assay (Promega Corporation, Madison, Wis., United States of America) according to the manufacturer's instructions. […] The cytotoxicity of Zn control/siRNAs at the siRNA doses corresponding to cisplatin IC50 values was also evaluated.
# [2] = test system: A2780/CDDP cells; test: In vitro cytotoxicity, MTS assay; details: after a 72 h incubation, read-out: Cisplatin IC50
# Description: as §1
# [3] = test system: ES-2 cells; test: In vitro cytotoxicity, MTS assay; details: after a 72 h incubation, read-out: Cisplatin IC50
# Description: as §1
# [4] = test system: OVCAR-3 cells; test: In vitro cytotoxicity, MTS assay; details: after a 72 h incubation, read-out: Cisplatin IC50
# Description: as §1
# [5] = test system: SKOV-3 cells; test: In vitro cytotoxicity, MTS assay; details: after a 72 h incubation, read-out: Cisplatin IC50
# Description: as §1
# [6] = test system: SKOV-3 cells; test: Cytotoxicity of UiO formulations, MTS assay; details: read-out: cisplatin IC50
# Description: To examine whether the efficient and simultaneous knockdown of three MDR-relevant genes including survivin, Bcl-2, and P-gp could effectively reverse the cisplatin resistance in ovarian cancer cells, the cytotoxicity of free cisplatin, UiO-Cis, and siRNA/UiO-Cis was assessed by 3-(4,5-dimethylthiazol-2-yl)-5-(3-carboxymethoxy-phenyl)-2-(4-sulfophenyl)-2H-tetrazolium (MTS) assay.
# [7] = test system: cisplatin-resistant ovarian cancer cells; test: DNA ladder and Annexin V conjugate staining (UiO)
# Description: Annexin V conjugate staining provided further evidence to the apoptosis induced by siRNA/UiO-Cis. siRNA loaded in the NMOFs were efficiently internalized into the cytoplasm after a 24-h incubation to trigger MDR-relevant gene silencing.
# [8] = test system: SQ20B cells; test: Time-dependent cellular uptake (ICP-MS, fluorimetry); details: cisplatin dose 5 μM
# Description: The cellular uptake of NCP-1 particles in SQ20B cells was quantified by ICP-MS. […] The cells were centrifuged at 3,000 rpm for 5 min and the cell pellet was digested with 500 μL of concentrated nitric acid. […] Results were expressed as the amount of cisplatin (ng) per 10^5 cells.
# [9] = test system: SQ20B cells; test: Efflux of cisplatin and pyrolipid; details: after 4-h uptake
# Description: The efflux of cisplatin and pyrolipid in SQ20B cells was quantified as follows. SQ20B cells were seeded on 6-well plates at 5×10^5 cells/well and incubated for 24 h. […] After incubating for 4 h, the culture medium was discarded and the cells were washed with PBS three times. […] Results were expressed as the percent of the amount of cisplatin or pyrolipid being effluxed compared to the 4-h cellular uptake amount. In order to understand the cellular uptake dynamics of NCP-1-pyrolipid, the efflux of cisplatin and pyrolipid in different formulations was determined. […] The cisplatin or pyrolipid amounts detected in the culture medium were compared with the 4-h uptake amounts to give the percent efflux (Table 9).
# [10] = test system: HNSCC135 cells; test: Cytotoxicity with or without irradiation, MTS assay; details: read-out: Cisplatin IC50
# Description: (§2) The cells were seeded on 96-well plates at 2500 cells/well. […] After a 24-h incubation, the cells were irradiated with LED light (670 nm) at 60 mW/cm^2 for 15 min (equals to 54 J/cm^2). The cells without irradiation treatment served as controls. The cells were further incubated for 48 h. The cell viability was detected by (3-(4,5-dimethylthiazol-2-yl)-5-(3-carboxymethoxyphenyl)-2-(4-sulfophenyl)-2H-tetrazolium) (MTS) assay (Promega, Madison, Wis., United States of America) and the IC50 values were calculated accordingly. […] These findings were further supported by the flow cytometry results (Table 11).
# [11] = test system: JSQ3 cells; test: as above; details: read-out: Cisplatin IC50
# Description: as §2
# [12] = test system: SCC61 cells; test: as above; details: read-out: Cisplatin IC50
# Description: as §2
# [13] = test system: SQ20B cells; test: as above; details: read-out: Cisplatin IC50
# Description: as §2
# [14] = test system: SQ20B cells; test: Flow cytometry, apoptosis and necrosis (Annexin V/PI)
# Description: SQ20B cells were seeded at 1×10^6 cells per well in 6-well plates and further cultured for 24 h. […] Cells incubated with PBS served as control. After a 24 h […] incubation, the cells were irradiated with light emitting diode (LED) light (670 nm) at 60 mW/cm^2 for 15 min (equals to 54 J/cm^2). Following a further incubation of 48 h, the floating and adherent cells were collected and stained with Alexa Fluor 488 Annexin V/dead cell apoptosis kit with Alexa Fluor 488 annexin V and PI (Invitrogen, Carlsbad, Calif., United States of America) according to manufacturer's instructions. The apoptosis and necrosis was examined on a flow cytometer (LSRII Blue, Becton, Dickinson, and Company, Franklin Lakes, N.J., United States of America).
# [15] = test system: H460 cells; test: Cytotoxicity of Pten and Pten-NCP
# [16] = test system: A2780 cells; test: Cytotoxicity of cisplatin/GMP NCP, MTS assay
# Description: (§3) The cytotoxicity of NCP particles carrying cisplatin, GMP, and thiol siRNAs targeting survivin, Bcl-2, and ERCC-1 were evaluated against human ovarian cancer cells A2780, A2780/CDDP, SKOV-3 and human non-small cell lung cancer cell H460 by MTS assay.
# [17] = test system: A2780R cells; test: Cytotoxicity of cisplatin/GMP NCP, MTS assay
# Description: as §3
# [18] = test system: SKOV-3 cells; test: Cytotoxicity of cisplatin/GMP NCP, MTS assay
# [19] = test system: H460 cells; test: Cytotoxicity of cisplatin/GMP NCP, MTS assay
# [20] = read-out: IC50 as GMP concentration (numbers in parenthesis)
molecule,measurement,setting,value
"N.N.[Cl][Pt][Cl] [Free cisplatin, cisplatin]",IC50,[1],4.4 ± 1 µM
same,IC50,[2],24 ± 3.1 µM
same,IC50,[3],37.6 ± 1.9 µM
same,IC50,[4],44.4 ± 3.2 µM
same,IC50,[5],59.5 ± 1.2 µM
same,IC50,[6],48.5 ± 4.3 µM
same,DNA fragmentation (DNA ladder),[7],No DNA fragmentation was detectable
same,Cisplatin uptake,[8]; 1 h,51.7 ± 4.5 ng/10^5 cells
same,Cisplatin uptake,[8]; 2 h,43.5 ± 1.4 ng/10^5 cells
same,Cisplatin uptake,[8]; 4 h,38.1 ± 0.8 ng/10^5 cells
same,Cisplatin uptake,[8]; 24 h,38.5 ± 1.3 ng/10^5 cells
same,Cisplatin efflux,[9]; 1 h,12.0 ± 1.5%
same,Cisplatin efflux,[9]; 2 h,13.5 ± 0.2%
same,Cisplatin efflux,[9]; 4 h,18.2 ± 5.1%
same,Cisplatin efflux,[9]; 24 h,20.0 ± 5.4%
same,Cisplatin efflux,"[9]; 24 h, listed as free cisplatin",20.0%
same,IC50,[10]; irradiation No,3.37 ± 0.73 µM
same,IC50,"[10]; irradiation Yes (670 nm, 54 J/cm^2)",2.65 ± 0.13 µM
same,IC50,[11]; irradiation No,11.3 ± 1.2 µM
same,IC50,[11]; irradiation Yes,13.3 ± 2.03 µM
same,IC50,[12]; irradiation No,3.46 ± 0.08 µM
same,IC50,[12]; irradiation Yes,3.69 ± 0.28 µM
same,IC50,[13]; irradiation No,3.92 ± 0.15 µM
same,IC50,[13]; irradiation Yes,4.18 ± 0.11 µM
same,Necrosis %,[14]; w/irradiation,0.2%
same,Apoptosis %,"[14]; w/irradiation, cisplatin 5 μM or equivalent pyrolipid",38.1%
same,Apoptosis %,[14]; w/o irradiation,37.9%
same,Necrosis %,[14]; w/o irradiation,0.2%
same,IC50,[15],4.8 µM
same,IC50,[16],0.764 ± 0.183 µM
same,IC50,[17]; read-out: Cisplatin IC50,13.6 ± 3.2 µM
same,IC50,[18]; read-out: Cisplatin IC50,4.6 ± 0.7 µM
same,IC50,[19]; read-out: Cisplatin IC50,4.6 ± 0.6 µM
gemcitabine monophosphate [GMP],IC50,[17]; [20],0.12 µM
same,IC50,[18]; [20],2.8 µM
same,IC50,[19]; [20],3.3 µM

# Reference: patent US20200085742A1, “NANOSCALE CARRIERS FOR THE DELIVERY OR CO-DELIVERY OF CHEMOTHERAPEUTICS, NUCLEIC ACIDS AND PHOTOSENSITIZERS” (The University of Chicago, priority 2013, published 2020)
